Reference: patent publication US20260008775A1, “AZOLE MODULATORS OF CHOLESTEROL BIOSYNTHESIS AND THEIR USE FOR PROMOTING REMYELINATION” (GENENTECH, INC., priority 2022, published 2026)

Key:
EpiSC-derived OPCs = experiment: In vitro phenotypic screening of OPCs, MBP high-content imaging (percentage of oligodendrocytes); type: cell-based, mouse; details: Mus musculus, 72 h, 3 days, MBP stain, dose-response 0.5 nM to 1000 nM; read-out: OPC EC50
Protocol: To assess effects of treatments on OPCs, all treatments were assayed in two or more independent platings of epiblast stem cell-derived OPCs (EpiSC). EpiSC-derived OPCs were obtained using in vitro differentiation protocols and culture conditions described previously (Najm et al, 2011, Nature Methods). OPCs were expanded and frozen down in aliquots. OPCs were thawed into growth conditions for at least one passage before use in further assays.
EpiSC-derived OPCs were grown and expanded in poly-L-ornithine (PO) and laminin-coated flasks in N2B27 media (DMEM/F12 (Gibco), N2-MAX (R&D Systems), B-27 (ThermoFisher), and GlutaMax (Gibco)) supplemented with FGF2 (10 μg/mL, R&D systems, 233-FB-025) and PDGF-AA (10 μg/mL, R&D systems, 233-AA-050) before harvesting for experiments. The cells were seeded onto poly-L-ornithine or poly-D-lysine coated CellCarrier Ultra plates (PerkinElmer) coated with laminin (Sigma, L2020) at a density of 150,000/cm^2 in N2B27 media without growth factors. For dose-response testing, a 1000× compound stock in dimethyl sulphoxide (DMSO) was added to assay plates, resulting in 8-point dose curves with final concentrations between 1000 nM and 0.5 nM. Positive controls and DMSO vehicle controls were included in each assay plate. Cells were incubated under standard conditions (37° C., 5% CO2) for 3 days and fixed with 4% paraformaldehyde (PFA) in phosphate buffered saline (PBS) for 20 min. Fixed plates were washed with PBS, permeabilized with 0.1% Triton X-100, and blocked with 10% donkey serum (v/v) in PBS for 40 min. Then, cells were labelled with MBP antibodies (Abcam, ab7349; 1:200) for 2 h at room temperature, washed with PBS, and stained with Alexa Fluor conjugated secondary antibodies (1:500) for 45 min. Nuclei were visualized by DAPI staining (Sigma; […]), followed by further PBS washes.
Cells and cell culture plates were imaged on the Operetta High Content Imaging and Analysis system (PerkinElmer). Analysis (PerkinElmer Harmony and Columbus software) began by identifying intact nuclei stained by DAPI. The peri-nuclear region of each cell was then cross-referenced with the mature myelin protein (MBP) stain to identify oligodendrocyte nuclei, and from this the percentage of oligodendrocytes was calculated. EC50 values were calculated using The Levenberg-Marquardt algorithm to fit a Hill equation to dose-response data (0.5 nM to 1000 nM).

[1] = molecular target: human emopamil binding protein and human 7-dehydrocholesterol reductase (hEBP-DHCR7) (Homo sapiens (Human), UniProt Q15125); experiment: hEBP-DHCR7 radioligand binding assay (filter binding, membranes of co-expressing HEK293 cells); details: competition with [3H] radioligand, 8 doses 0.06 to 5000 nM, Ki calculated from IC50
Procedure, shortened: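 Compound, either single dose 1 μM or eight 5-fold dilutions from 0.06 to 5000 nM, competed with a [3H]-labelled ligand added at 25 nM for binding to co-expressing HEK293 membranes. IC50 came from nonlinear regression, with full block and DMSO as controls, then Cheng–Prusoff conversion to Ki.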

[2] = system: zymostenol accumulation (EBP) in EpiSC-derived OPCs; experiment: GC/MS-based sterol profiling, zymostenol accumulation in EpiSC-derived OPCs; type: cell-based, mouse; details: Mus musculus, 24 h, EpiSC-derived OPCs, 24 hr, 8 doses from 0.15 nM to 333 nM; read-out: Mouse Zymostenol GCMS EC50
Procedure, shortened: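 Zymostenol level is expressed relative to that after 24 h with 100 nM positive-control reference, measured by full-scan GC/MS (m/z 458) with cholesterol-d7 internal standard after BSTFA derivatisation. Cells were EpiSC-derived OPCs, 100,000/well in N2B27 without growth factors, treated 24 h, from two or more independent platings.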

Sequence of human emopamil binding protein and human 7-dehydrocholesterol reductase (hEBP-DHCR7) (Q15125 whole entry): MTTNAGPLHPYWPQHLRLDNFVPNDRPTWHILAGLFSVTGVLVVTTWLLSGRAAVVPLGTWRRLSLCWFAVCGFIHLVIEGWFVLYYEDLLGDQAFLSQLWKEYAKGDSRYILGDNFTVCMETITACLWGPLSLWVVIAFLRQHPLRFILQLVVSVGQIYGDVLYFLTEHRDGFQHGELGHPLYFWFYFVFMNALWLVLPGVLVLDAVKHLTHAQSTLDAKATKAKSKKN

EC50 (EpiSC-derived OPCs) | Ki [1] | EC50 [2] | SMILES
0.00841 µM | 0.109 µM | 0.00395 µM | CC(C)n1nc(-c2cccc(C(F)(F)F)n2)nc1[C@H]1[C@@H]2C[C@H](N3CCOC[C@H]3C)C[C@@H]21 [Compound 73, (R)-4-((1R,3r,5S,6R)-6-(1-isopropyl-3-(6-(trifluoromethyl)pyridin-2-yl)-1H-1,2,4-triazol-5-yl)bicyclo[3.1.0]hexan-3-yl)-3-methylmorpholine]
0.0973 µM | 0.0275 µM | 0.0214 µM | CC(C)n1nc(-c2cnc(C(F)(F)F)nc2)cc1[C@H]1[C@@H]2C[C@H](N3CCOCC3)C[C@@H]21 [Compound 203, 4-((1R,3r,5S,6r)-6-(1-isopropyl-3-(2-(trifluoromethyl)pyrimidin-5-yl)-1H-pyrazol-5-yl)bicyclo[3.1.0]hexan-3-yl)morpholine]
0.749 µM | 0.029 µM | 0.205 µM | CC(C)n1nc(-c2cccc(C(F)(F)F)c2)nc1[C@H]1[C@@H]2C[C@@H](N3CCOC[C@H]3C)C[C@@H]21 (single isomer, unassigned) [71*]
0.0676 µM | 0.0128 µM | 0.0113 µM | COCCN1CCN([C@H]2CC[C@@H](c3cc(-c4ccc(C(F)(F)F)nc4)nn3C(C)C)C2)CC1 (single isomer, unassigned) [91*]
0.006 µM | 0.016 µM | 0.00207 µM | CC(C)n1nc(-c2cnc(C(F)(F)F)nc2)nc1[C@H]1[C@@H]2C[C@H](N3CCOC[C@H]3C)C[C@@H]21 [Compound 204, (R)-4-((1R,3r,5S,6r)-6-(1-isopropyl-3-(2-(trifluoromethyl)pyrimidin-5-yl)-1H-1,2,4-triazol-5-yl)bicyclo[3.1.0]hexan-3-yl)-3-methylmorpholine]
0.175 µM | 0.112 µM | 0.03 µM | CC(C)n1nc(-c2cncc(C(F)(F)F)c2)cc1[C@H]1[C@@H]2C[C@@H](N3C[C@H]4C[C@@H]3CO4)C[C@@H]21 (single isomer, unassigned) [35*]
0.103 µM | 0.0282 µM | 0.0162 µM | CC(C)n1nc(-c2cncc(C(F)(F)F)c2)cc1[C@@H]1CC[C@@H](N2CCCOCC2)C1 (single isomer, unassigned) [65*]
0.00182 µM | 0.00864 µM | 0.00171 µM | CC(C)n1nc(-c2cccc(C(F)(F)F)c2)cc1[C@H]1[C@@H]2C[C@H](N3CCCOCC3)C[C@@H]21 [Compound 176*, 4-((1R,3s,5S,6r)-6-(1-isopropyl-3-(3-(trifluoromethyl)phenyl)-1H-pyrazol-5-yl)bicyclo[3.1.0]hexan-3-yl)-1,4-oxazepane]
0.0114 µM | 0.0151 µM | 0.00387 µM | CC(C)n1nc(-c2cc(C(F)(F)F)ncn2)cc1[C@H]1[C@@H]2C[C@H](N3CCOC[C@H]3C)C[C@@H]21 [Compound 106, (R)-4-((1R,3r,5S,6R)-6-(1-Isopropyl-3-(6-(trifluoromethyl)pyrimidin-4-yl)-1H-pyrazol-5-yl)bicyclo[3.1.0]hexan-3-yl)-3-methylmorpholine]
0.000907 µM | 0.0348 µM | 0.00142 µM | CC(C)n1nc(-c2cncc(C(F)(F)F)c2)cc1[C@H]1[C@@H]2C[C@H](N3CCOC[C@H]3C)C[C@@H]21 (single isomer, unassigned) [46*]
0.555 µM | 0.0358 µM | 0.0656 µM | CC(C)n1nc(-c2cncc(Cl)c2)cc1[C@H]1[C@@H]2C[C@H](N3CCCOCC3)C[C@@H]21 [Compound 178*, 4-((1R,3r,5S,6r)-6-(3-(5-chloropyridin-3-yl)-1-isopropyl-1H-pyrazol-5-yl)bicyclo[3.1.0]hexan-3-yl)-1,4-oxazepane]
0.0369 µM | 0.0158 µM | 0.0185 µM | CC(C)n1nc(-c2ccc(C(F)(F)F)cc2)cc1[C@H]1[C@@H]2C[C@@H](N3CCCOCC3)C[C@@H]21 [Compound 182*, 4-((1R,3s,5S,6r)-6-(1-isopropyl-3-(4-(trifluoromethyl)phenyl)-1H-pyrazol-5-yl)bicyclo[3.1.0]hexan-3-yl)-1,4-oxazepane]
0.0893 µM | 0.0893 µM | 0.024 µM | CC(C)n1nc(-c2cnc(C(F)(F)F)nc2)nc1[C@H]1CC[C@@H](N2CCO[C@H](CF)C2)C1 [Compound 161, (S)-2-(Fluoromethyl)-4-((1R,3S)-3-(1-isopropyl-3-(2-(trifluoromethyl)pyrimidin-5-yl)-1H-1,2,4-triazol-5-yl)cyclopentyl)morpholine]
0.144 µM | 0.211 µM | 0.23 µM | CC(C)n1nc(-c2cncc(C(F)(F)F)c2)cc1[C@H]1[C@@H]2C[C@@H](N3C[C@@H]4C[C@H]3CO4)C[C@@H]21 (single isomer, unassigned) [36*]
0.00772 µM | 0.021 µM | 0.00162 µM | CC(C)n1nc(-c2cccc(C(F)(F)F)n2)cc1[C@H]1[C@@H]2C[C@H](N3CCCOCC3)C[C@@H]21 [Compound 50, 4-((1R,3r,5S,6r)-6-(1-Isopropyl-3-(6-(trifluoromethyl)pyridin-2-yl)-1H-pyrazol-5-yl)bicyclo[3.1.0]hexan-3-yl)-1,4-oxazepane]
0.138 µM | 0.0262 µM | 0.0251 µM | CC(C)n1nc(-c2cncc(C(F)(F)F)c2)cc1[C@H]1CC[C@H](N2CCOCC2)C1 (single isomer, unassigned) [58*]
0.0101 µM | 0.00987 µM | 0.00546 µM | Cc1ccccc1-c1cc([C@H]2[C@@H]3C[C@H](N4CCCOCC4)C[C@@H]32)n(C(C)C)n1 (single isomer, unassigned) [Compound 197*]
0.131 µM | 0.0131 µM | 0.0423 µM | CC(C)n1nc(-c2ccccc2F)cc1[C@H]1[C@@H]2C[C@@H](N3CCCOCC3)C[C@@H]21 [Compound 194*, 4-((1R,3s,5S,6r)-6-(3-(2-fluorophenyl)-1-isopropyl-1H-pyrazol-5-yl)bicyclo[3.1.0]hexan-3-yl)-1,4-oxazepane]
0.0489 µM | 0.0262 µM | 0.0164 µM | CC(C)n1nc(-c2ccc(C(F)(F)F)nc2)cc1[C@@H]1CC[C@H](N2CCN(CCO)CC2)C1 (single isomer, unassigned) [87*]
0.0542 µM | 0.0958 µM | 0.018 µM | FC(F)(F)c1cccc(-c2nc([C@H]3CC[C@@H](N4CCCOCC4)C3)n(C3CC3)n2)n1 (single isomer, unassigned) [10*]
0.431 µM | 0.0206 µM | 0.0567 µM | CC(C)n1nc(-c2ccc(OC(F)(F)F)cc2)cc1[C@H]1[C@@H]2C[C@@H](N3CCCOCC3)C[C@@H]21 [Compound 186*, 4-((1R,3s,5S,6r)-6-(1-isopropyl-3-(4-(trifluoromethoxy)phenyl)-1H-pyrazol-5-yl)bicyclo[3.1.0]hexan-3-yl)-1,4-oxazepane]
0.075 µM | 0.053 µM | 0.042 µM | CC(C)n1nc(-c2cccc(C(F)(F)F)n2)cc1[C@H]1[C@@H]2C[C@@H](N3CCCOCC3)C[C@@H]21 [Compound 49, 4-((1R,3s,5S,6r)-6-(1-Isopropyl-3-(6-(trifluoromethyl)pyridin-2-yl)-1H-pyrazol-5-yl)bicyclo[3.1.0]hexan-3-yl)-1,4-oxazepane]
0.09 µM | 0.0325 µM | 0.0148 µM | CC(C)n1nc(-c2cncc(C(F)(F)F)c2)cc1[C@H]1[C@@H]2CC(N3CCCOCC3)C[C@@H]21 (single isomer, unassigned) [30*]
0.0975 µM | 0.0405 µM | 0.017 µM | CC(C)n1nc(-c2cncc(C(F)(F)F)c2)cc1[C@H]1CC[C@H](N2CCOCC2)CC1 [2*, 4-((1r,4r)-4-(1-isopropyl-3-(5-(trifluoromethyl)pyridin-3-yl)-1H-pyrazol-5-yl)cyclohexyl)morpholine]
